# What was measured:
# Format in all cases: in vivo, mouse
# aged (18-month-old) mice [1] = test: Cardiotoxin (CTX)-induced muscle injury, transcript levels, aged mice; settings: for MyoD transcript level: 3 and 7 days
# Procedure: (§1) Mice were i.p injected with buprenorphine (Centravet, 0.1 mg/kg) 30 minutes before injury and the day after. The day of the injury, mice were anesthetized with isoflurane inhalation and hindlimbs were shaved. Then, 10 μM of cardiotoxin (CTX, Latoxan, #L8102) was injected through two injections of 25 μl into the left tibialis muscle and two injections of 50 μl into the left gastrocnemius muscle, using a 22-gauge needle (Hamilton). Mice were euthanized 3 and 7 days after injury by cervical dislocation, muscles (PBS- and CTX-injected) were cut in two parts, one being snap frozen into liquid nitrogen for total RNA extraction and the other part being embedded into OCT, frozen in isopentane cooled with liquid nitrogen for histological analysis.
# young (3-month-old) mice = test: Cardiotoxin (CTX)-induced muscle injury, transcript levels, young mice
# Procedure: as §1
# aged (18-month-old) mice [2] = test: Cardiotoxin (CTX)-induced muscle injury, histology of tibialis (cross-sectional area, centrally nucleated fibers)
# Procedure: Impairment of muscle regeneration can contribute to age-related muscle weakness. This is particularly true in aged individuals who engage in physical activity. Exercise-induced muscle hypertrophy is linked to the capacity of muscle stem cells to be activated and promote regeneration.
# Mice were i.p injected with buprenorphine (Centravet, 0.1 mg/kg) 30 minutes before injury and the day after. The day of the injury, mice were anesthetized with isoflurane inhalation and hindlimbs were shaved. […]
# Mouse muscle samples were dissected and cryopreserved in OCT frozen in liquid nitrogen cooled isopentane. […] Images were captured using a digital camera (Nanozoomer, Hamamatsu) attached to a motorized fluorescence microscope or using Olympus VS120 Virtual Microscopy Slide Scanning System. The area covered by eMHC-positive fibers and degenerated area was determined manually across the entire sections using the VS-ASW FL software measurement tools. The size of myofibers with central nuclei was calculated from laminin/DAPI staining on all fibers of the section and area determination were performed across the entire sections, using an automated image processing algorithm developed internally using the MetaXpress software (Molecular Devices).
# [3] = tibialis anterior, 7 days, both BGE-105 dosages
structure (smiles),measurement,setting,value
CSCC[C@H](NC(=O)[C@@H]1CCCN1C(=O)CNC(=O)[C@H](CCCCN)NC(=O)[C@H](Cc1c[nH]cn1)NC(=O)[C@H](CO)NC(=O)[C@H](CC(C)C)NC(=O)[C@H](CCCNC(=N)N)NC(=O)[C@@H]1CCCN1C(=O)[C@H](CCCNC(=N)N)NC(=O)[C@@H]1CCC(=O)N1)C(=O)N1CCC[C@H]1C(=O)N[C@@H](Cc1ccccc1)C(=O)O [Pyr^1-Apelin-13],MyoD transcript level,"aged (18-month-old) mice [1]; gastrocnemius, both BGE-105 dosages",significant increase
same,Myf5 transcript level,"aged (18-month-old) mice [1]; gastrocnemius, 3 or 7 days",no significant change
same,MyoG transcript level,"aged (18-month-old) mice [1]; gastrocnemius, 3 or 7 days",no significant change
same,Pax7 transcript level,"aged (18-month-old) mice [1]; gastrocnemius, 3 or 7 days",no significant change
same,MyHC8 transcript level,"aged (18-month-old) mice [1]; gastrocnemius, any time point",does not show a change
same,MyoD transcript level,"aged (18-month-old) mice [1]; tibialis anterior, both BGE-105 dosages",significant increase
same,Pax7 transcript level,"aged (18-month-old) mice [1]; tibialis anterior, 7 days, BGE-105 50 and 200 mg/kg/day P.O., apelin 0.5 mol/kg/day injection",significant increase
same,MyHC3 transcript level,aged (18-month-old) mice [1]; [3],significant increase
same,MyoG transcript level,aged (18-month-old) mice [1]; [3],significant increase
same,Myf5 transcript level,"young (3-month-old) mice; gastrocnemius, 3 or 7 days",no change
same,MyoD transcript level,"young (3-month-old) mice; gastrocnemius, 3 or 7 days",no change
same,MyoG transcript level,"young (3-month-old) mice; gastrocnemius, 3 or 7 days",no change
same,Pax7 transcript level,"young (3-month-old) mice; gastrocnemius, 3 or 7 days",no change
same,MyHC8 transcript level,"young (3-month-old) mice; gastrocnemius, 3 days, both BGE-105 dosages",non-significant increase
same,MyHC3 transcript level,"young (3-month-old) mice; tibialis, 3 or 7 days",no significant change
same,MyHC8 transcript level,"young (3-month-old) mice; tibialis, 3 or 7 days",no significant change
same,Myf5 transcript level,"young (3-month-old) mice; tibialis, 3 or 7 days",no difference
same,MyoD transcript level,"young (3-month-old) mice; tibialis, 3 or 7 days",no significant increase
same,MyoG transcript level,"young (3-month-old) mice; tibialis, 3 or 7 days",no difference
same,Pax7 transcript level,"young (3-month-old) mice; tibialis, 3 or 7 days",no change
same,cross-sectional area of the tibialis,"aged (18-month-old) mice [2]; 3 and 7 days post cardiotoxin, BA1 (50 mg/kg/d) and BA2 (200 mg/kg/d)",significant increase
same,amount of centrally nucleated myofibers (CNM),"aged (18-month-old) mice [2]; 18-month-old mice after cardiotoxin, significant at the higher BGE-105 dose (200 mg/kg/day)",significant increase

# Source: US20240122926A1, “APELIN RECEPTOR MODULATORS FOR TREATING MUSCLE CONDITIONS” (priority 2022, published 2024)
